Measurements as given in US20240294476A1, “CRYSTAL FORM OF QUINOLINE COMPOUND AND PROCESS FOR ITS PRODUCTION” (NISSAN CHEMICAL CORPORATION, priority 2003, published 2024).

What was measured:
[1] = Crystallinity by powder X-ray diffraction after drying; format: physicochemical; conditions: dried in a usual manner, water content at most 4%
Description: (§1) However, in the conventional method for producing pitavastatin calcium, there has been no disclosure relating to the water content or the crystal form.

[2] = Stability data of drug substance (influence of water content), storage at 40° C.; format: physicochemical
Description: as §1

[3] = 40° C. air tight, Initial stage

- Analogous substance (%) ([2]; 40° C. air tight, 30 Days): 0.208%
- Pitavastatin calcium (%) ([2]; 40° C. air tight, 30 Days): 99.42%
- Water content (%) ([2]; 40° C. air tight, 30 Days): 7.85%
- Analogous substance (%) ([2]; 40° C. air tight, 60 Days): 0.189%
- Pitavastatin calcium (%) ([2]; 40° C. air tight, 60 Days): 99.79%
- Water content (%) ([2]; 40° C. air tight, 60 Days): 7.88%
- Analogous substance (%) ([2]; 40° C. air tight, 90 Days): 0.211%
- Pitavastatin calcium (%) ([2]; 40° C. air tight, 90 Days): 99.64%
- Water content (%) ([2]; 40° C. air tight, 90 Days): 7.81%
- Analogous substance (%) [2, 3]: 0.179%
- Pitavastatin calcium (%) [2, 3]: 99.38%
- Water content (%) [2, 3]: 7.89%
- Analogous substance (%) ([2]; 40° C. open air, 30 Days): 0.742%
- Pitavastatin calcium (%) ([2]; 40° C. open air, 30 Days): 99.26%
- Water content (%) ([2]; 40° C. open air, 30 Days): 2.45%
- Analogous substance (%) ([2]; 40° C. open air, 60 Days): 1.347%
- Pitavastatin calcium (%) ([2]; 40° C. open air, 60 Days): 97.19%
- Water content (%) ([2]; 40° C. open air, 60 Days): 1.99%
- Analogous substance (%) ([2]; 40° C. open air, 90 Days): 2.099%
- Pitavastatin calcium (%) ([2]; 40° C. open air, 90 Days): 96.49%
- Water content (%) ([2]; 40° C. open air, 90 Days): 1.77%
- Analogous substance (%) ([2]; 40° C. open air, Initial stage): 0.179%
- Pitavastatin calcium (%) ([2]; 40° C. open air, Initial stage): 99.38%
- Water content (%) ([2]; 40° C. open air, Initial stage): 7.89%
- stability during the storage ([2]; pitavastatin calcium which has become amorphous): very poor stability
SMILES: O=C(O)C[C@H](O)C[C@H](O)/C=C/c1c(C2CC2)nc2ccccc2c1-c1ccc(F)cc1 [Pitavastatin calcium, monocalcium bis[(3R,5S,6E)-7-(2-cyclopropyl-4-(4-fluorophenyl)-3-quinolyl)-3,5-dihydroxy-6-heptenoate]]
- crystallinity (powder X-ray diffraction) [1]: decrease to a state close to an amorphous state
